In patent US20070282004A1, “Use of a Cyclopentenone Prostaglandin for Delaying for the Onset and/or Preventing the Continuation of Labour” (Imperial College Innovations Limited, priority 2003, published 2007):

Columns and labels:
PPAR-γ = biological target: T1, PPAR-γ (Homo sapiens, UniProt P37231); conditions: as stated from the literature; cited from earlier work
T1 sequence (P37231 1-505): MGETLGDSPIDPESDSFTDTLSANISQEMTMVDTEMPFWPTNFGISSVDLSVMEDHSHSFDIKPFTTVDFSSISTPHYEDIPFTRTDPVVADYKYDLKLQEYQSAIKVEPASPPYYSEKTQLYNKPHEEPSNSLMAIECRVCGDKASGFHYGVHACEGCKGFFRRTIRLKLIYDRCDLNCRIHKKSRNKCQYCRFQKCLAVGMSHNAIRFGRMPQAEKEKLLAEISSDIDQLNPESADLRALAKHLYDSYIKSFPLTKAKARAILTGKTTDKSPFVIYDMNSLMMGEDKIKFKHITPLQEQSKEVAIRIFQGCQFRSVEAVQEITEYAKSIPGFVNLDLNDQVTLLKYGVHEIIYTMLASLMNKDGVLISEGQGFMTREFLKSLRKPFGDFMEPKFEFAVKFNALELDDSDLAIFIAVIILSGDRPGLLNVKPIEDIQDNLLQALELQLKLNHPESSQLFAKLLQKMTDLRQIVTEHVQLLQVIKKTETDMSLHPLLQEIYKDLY

NF-κB [1] = biological target: T2, NF-κB (Homo sapiens, UniProt P19838+Q04206); experiment: EMSA of NF-κB DNA binding in nuclear extracts of treated amnion cells; assay type: cell-based; conditions: L− and L+ amnion cells, treated 2 h, then IL-1β 15 min
T2 construct: nuclear protein extracts from myometrial cells; endogenous in cells; host or cells: primary human myometrial cells (term, passage 1-4)
Method: (§1) Placentae were obtained from patients at term either at elective Caesarean section prior to labour (L−) or following spontaneous labour onset and vaginal delivery (L+). Amnion cells were prepared as described in Bennett et al., (1989). Briefly, the amnion was separated from the placenta, washed 3× in PBS, cut into strips, and incubated in 0.5 mM EDTA in PBS for 15 min. The strips were washed in PBS 2× and digested with 2.5 mg/ml dispase in serum-free DMEM for 35 min at 37° C. The amnion was then shaken vigorously in DMEM, 10% FCS to dissociate the cells, the remaining strips discarded, and the cell suspension pelleted at 175 g for 10 min and cultured in DMEM, 10% FCS (Sigma), 1% L-glutamine, 1% penicillin-streptomycin.
Nuclear and cytosolic protein extracts were obtained from cultured amnion cells as described by Schreiber et al (1989). For nuclear/cytosolic fractionation, confluent cell monolayers were scraped and lysed using a buffer containing 10 mM HEPES, 10 mM KCl, 0.1 mM EDTA, 0.1 mM EGTA, 2 mM DTT, 1% (v/v) NP-40 and complete protease inhibitor tablets (CPIs, Roche), diluted to manufacturer's instructions. Cell lysates were incubated on ice for 10 min and NP-40 added to a final concentration of 1% (v/v). Lysates were vortexed for 10 secs and centrifuged for 30 secs at 4° C., 12000 g. The supernatants were retained as the cytosolic protein extracts. The pellets were resuspended in buffer containing 10 mM HEPES, 10 mM KCl, 0.1 mM EDTA, 0.1 mM EGTA, 2 mM DTT, 400 mM NaCl, 1% NP-40 (v/v) and CPIs. Samples were shaken vigorously for 15 min in an ice bath. The nuclear protein extracts were obtained in the supernatant following a 5 min centrifugation at 4° C., 12000 g.
Sense and antisense strands (175 nmole/ml each) were incubated in annealing buffer (10 mM Tris-HCl pH7.5, 100 mM NaCl, 1 mM EDTA) for 10 min at 65° C., and allowed to cool at room temperature for 2 h. 3.5 pmole double-stranded oligonucleotides were end-labelled with 0.37 MBq ^32P(γATP) by incubating for 30 min at 37° C. with T4 polynucleotide kinase. Labelled oligonucleotides were recovered by centrifugation at 3000 rpm for 2 min through MicroSpin G-25 or G-50 sephadex columns (Amersham Biosciences).
3-5 μg protein extracts were incubated on ice for 1 h with non-radiolabelled non-specific oligonucleotide (poly(dI-dC) or Oct-1) in a binding buffer (20% (v/V) glycerol, 5 mM MgCl2, 2 mM EDTA, 50 mM Tris-HCl pH7.5, 250 mM NaCl, 2 mM DTT), followed by a 45 min incubation with 0.035 pmole ^32P(γ(ATP)-end labelled oligonucleotide probes:
Oct-1 or SP-1 consensus sequences were used as a controls for a NF-κB-specific effect. The resulting protein/DNA complexes were separated in a 4% acrylamide gel, the gel dried under vacuum at 80° C. and exposed to X-ray film. For supershift analysis, samples were incubated with 2 μg antibodies for 30 min on ice prior to incubation with oligonucleotides. Non-radio-labelled oligonucleotides were used at 100-fold molar excess for specific and non-specific competition for DNA binding. Reagents for EMSA were obtained from Promega Life Sciences, Delta House, Chilworth Research Centre, Southampton SO16 7NS, United Kingdom.

NF-κB [2] = experiment: NF-κB-dependent luciferase reporter (κB.BG.Luc) in amnion cells; assay type: cell-based, human; conditions: L− or L+ amnion cells, treated 2 h, IL-1β 1 ng/ml 6 h
Method: . Values are normalised for b-gal reporter activity.
as §1
pGL3.6κB.BG.luc was the reporter construct used to assess NF-κB-mediated transcription, while the mutant pGL3.6κBmut.luc and empty pGL3.BG.luc were used as controls (Schwarzer et al., 1998).
pGL3.6κB.BG.luc: a NF-κB-dependent reporter construct with 6 copies of the NF-κB binding site. It contains two tandem repeats of the sequence 5′-GGG GAC TTT C CC TGGGGACTTTCCCTGGGGACTTTCCC-3′, which contains three copies of the decameric NF-κB binding site (underlined) upstream of a minimal β-globin promoter driving a luciferase gene.
Cells were co-transfected with the renilla vector pRL-CMV or β-galactosidase vector pCH110 as internal controls for transfection efficiencies.

T2 sequence (Q04206 whole entry): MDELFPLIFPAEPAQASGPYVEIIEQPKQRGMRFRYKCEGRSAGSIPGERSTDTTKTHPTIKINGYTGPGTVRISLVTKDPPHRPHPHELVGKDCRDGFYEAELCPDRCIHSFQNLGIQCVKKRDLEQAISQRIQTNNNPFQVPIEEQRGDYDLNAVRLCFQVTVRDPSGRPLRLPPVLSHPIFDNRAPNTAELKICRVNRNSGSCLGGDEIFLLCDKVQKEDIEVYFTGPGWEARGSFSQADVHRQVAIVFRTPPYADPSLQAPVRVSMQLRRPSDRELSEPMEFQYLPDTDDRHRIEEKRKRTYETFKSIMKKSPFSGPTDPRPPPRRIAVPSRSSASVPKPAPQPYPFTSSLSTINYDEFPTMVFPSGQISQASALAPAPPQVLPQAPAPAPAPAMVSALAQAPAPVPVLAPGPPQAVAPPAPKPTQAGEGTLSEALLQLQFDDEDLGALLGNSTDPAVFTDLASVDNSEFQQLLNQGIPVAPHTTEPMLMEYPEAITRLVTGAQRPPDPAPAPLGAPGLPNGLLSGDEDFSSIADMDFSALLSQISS
T2 sequence (P19838 1-433 limits assumed): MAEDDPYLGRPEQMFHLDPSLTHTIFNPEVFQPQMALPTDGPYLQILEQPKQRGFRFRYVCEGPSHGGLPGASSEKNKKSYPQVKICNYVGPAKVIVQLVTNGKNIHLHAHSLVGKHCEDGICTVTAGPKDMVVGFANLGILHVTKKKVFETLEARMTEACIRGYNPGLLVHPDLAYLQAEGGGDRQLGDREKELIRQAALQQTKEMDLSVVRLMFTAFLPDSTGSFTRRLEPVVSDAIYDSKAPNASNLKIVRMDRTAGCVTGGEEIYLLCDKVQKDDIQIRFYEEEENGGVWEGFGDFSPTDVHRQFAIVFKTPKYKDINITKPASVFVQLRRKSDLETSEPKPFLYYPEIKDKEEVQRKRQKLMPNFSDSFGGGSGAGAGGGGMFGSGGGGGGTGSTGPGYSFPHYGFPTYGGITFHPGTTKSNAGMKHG

| SMILES | PPAR agonist / ligand activity (PPAR-γ) | IL-1β-induced NF-κB DNA binding (EMSA) (NF-κB [1]) | IL-1β-induced NF-κB transcriptional activity (κB.BG.Luc reporter) (NF-κB [2]) | IL-1β-induced NF-κB DNA binding (EMSA) (NF-κB [1]; listed as 15dPGJ2) |
| --- | --- | --- | --- | --- |
| CCCCC[C@H](O)/C=C/[C@H]1C=CC(=O)[C@@H]1CCCCCCC(=O)O [PGA1, prostaglandin A1] | does not act as a PPAR ligand | inhibition | inhibited | – |
| CCCCCC=CC=C1C(=O)C=C[C@@H]1CC=CCCCC(=O)O [15d-PGJ2, 15-deoxy-Δ^12,14prostaglandin J2] | is a PPAR agonist | inhibited IL1-β-induced NF-κB DNA binding in a dose-dependent manner | inhibited | inhibition |
